In brackets after ≈: the same amount, converted by molar mass.
What was measured:
[1] = system: X. citri subsp. citri strain 306; assay: Determination of minimum inhibitory concentrations (MICs) in NB medium, 96-well plate; type: cell-based, Xanthomonas citri subsp. citri; conditions: 48 h
Description: Xac strain 306 was grown in NB at 28° C. with shaking at 200 rpm for 7 h. The cultures were standardized to an OD600 of 0.03 (5×10^7 colony forming unit (CFU)/mL) in NB and then aliquoted into wells of a 96-well plate, 190 μL per well. The initial test concentrations of the compounds were diluted (1:20) in the culture (10 μl of compound in 190 μl of culture) and incubated at 28° C. under stationary conditions. The cultures were monitored at 24 and 48 h at OD600, and the lowest concentration resulting in no growth after 48 h compared to the control samples was defined as the MIC for Xac strain 306. All determinations were conducted in eight replicate wells and repeated three times.

Xac 306 biofilm cells = assay: Resistance of Xac biofilm cells to copper, cell viability assay in glass tubes; type: cell-based, Xanthomonas citri subsp. citri; conditions: CuSO4 (1.0 mM) alone, 24 h
Description: The level of copper resistance of biofilms was evaluated using a cell viability assays. Briefly, Xac biofilms were prepared using NB with stationary incubation in glass tubes as described above. After 48 h-incubation, the cultures were removed and bacterial cells attached to the tubes were gently washed three times with SDW. One milliliter of fresh NB with CuSO4 (1.0 mM), D-leucine (10 mM) or IAN (100 μg/mL), or a combination of these compounds was added to each tube. NB alone was used as control. Tubes were kept at room temperature for 24 h and shaken vigorously for 5 min. The suspensions were diluted in 10-fold series, and 10 μL of each dilution spotted in triplicate on NA plate. Plates were incubated at 28° C. for 48 to 72 h prior to assessing bacterial growth. Colonies that grew near the dilution end-point were counted and bacterial populations in the initial suspensions prior to dilution were calculated. Each treatment compromises four replicates and the experiment repeated three times.

[2] = system: Xac 306 on grapefruit leaves; assay: Plant test in greenhouse, spray inoculation of grapefruit leaves; type: in vivo, Xanthomonas citri subsp. citri
Description: The effect of selected biofilm inhibitors on Xac infection/virulence-was investigated using 20-week-old potted grapefruit (Citrus paradise cv. Duncan grapefruit) plants in a quarantine greenhouse at the Citrus Research and Education Center, Lake Alfred, Fla. Copper (CuSO4, 100 μg/mL), D-leucine (10 mM), IAN (100 μg/mL) and a combination of these compounds were individually prepared in 100 ml of SDW. Bacterial inoculum was prepared by growing Xac 306 on NA plates at 28° C. for 48 h, suspending in SDW, adjusting concentration to approximately OD600=0.3 (5×10^8 CFU/mL). The inoculation was performed by a spray method as described previously (Li and Wang, 2012) with modifications. Briefly, the abaxial surfaces of fully expanded, immature leaves of each plant were sprayed with the following treatments: SDW, Xac 306, and Xac 306 combined with CuSO4 (100 μg/mL), D-leucine (10 mM), IAN (100 μg/mL), or a combination of these compounds. Silwett-L77 (silicone-polyether copolymer, Fisher) was added to each treatment at a 0.03% (V/V) final concentration. After inoculation, the plants were covered with plastic bags for 24 h to maintain a high (>90%) relative humidity and then kept in a greenhouse (approximately 60% relative humidity) for symptom development. All inoculations included a minimum of three immature leaves at a similar developmental stage from each plant, and each treatment comprised four plants. The experiments were repeated three times independently. SDW was applied as a negative control, and Xac306 mixed with SDW as positive control. To determine whether the timing of application of biofilm inhibitors in relation to Xac306 affected canker symptom suppression, the biofilm inhibitors were inoculated on leaves 6 h prior to or after inoculation with Xac306.
For bacterial population assays, the leaves of grapefruit plants were inoculated as described above. Two leaf discs randomly selected from each of three inoculated leaves were cut with a cork borer (0.8 cm in diameter) and then ground in 1 mL of SDW. The suspensions were serially diluted and plated on NA plates containing rifamycin. After incubation at 28° C. for 48 h, bacterial colonies were counted and the number of CFU per square centimeter of leaf tissue was calculated. The assays were repeated three times independently.

Xac306 biofilm formation = assay: Static biofilm formation assay in 96-well polystyrene plates with crystal violet staining; type: cell-based, Xanthomonas citri subsp. citri; conditions: 0 to 20 mM for D-leucine and D-serine; 0 to 150 μg/mL for IAN
Description: A static biofilm formation assay in 96-well polystyrene plates coupled with CV staining was performed as previously reported with modifications (Li and Wang, 2011). Briefly, a 96-well polystyrene plate (Nunclon surface, Nuncbrand, Denmark) was prepared with 170 μL NB plus 1.0% glucose per well. Aliquots of 20 μL each of the different concentrations of the tested compound were pipetted into eight wells containing 170 μL of NB plus 1.0% glucose. To each of these wells was added 10 μL of the standardized overnight Xac 306 culture (OD600=1.0). Control wells contained NB plus 1.0% glucose and SDW or 0.1% DMSO as a sterility control, or standardized overnight Xac 306 culture as a growth control. The plate was covered by a MicroWell lid (Nunclon), sealed with parafilm to prevent evaporation and incubated at 28° C. for 48 h without shaking. After incubation, the planktonic growth was measured at OD600. To quantify the amount of biofilms formed on the surfaces of the wells, the culture was removed from the wells. After drying, the wells were washed twice with 200 μl of SDW for 5 min, allowed to dry then 200 μl of 0.1% CV added. After 30 minutes, the CV was removed. The wells were washed with excess SDW to remove unbound CV and air dried in an inverted position for 2 h. Afterward, 200 μl of 95% ethanol was added to the wells and incubated for 30 min at room temperature to elute bound CV. The eluted CV was 2-fold diluted in double distilled water and the absorbance at 590 nm was measured. Each data point was averaged from eight replicate wells.

Row | Compound | MIC of CuSO4 in the presence of D-leucine and IAN ([1]; D-leucine 10 mM and IAN 100 μg/mL, planktonic cells, NB medium) [µM] | MIC of CuSO4 in the presence of D-leucine ([1]; D-leucine 10 mM, planktonic cells, NB medium) [µM] | MIC of CuSO4 in the presence of IAN ([1]; IAN 100 μg/mL, planktonic cells, NB medium) [µM] | MIC ([1]; compound alone, NB medium, 28° C., stationary, OD600) [µM] | viable cells in biofilms (Xac 306 biofilm cells) | level of canker lesions on sprayed leaves ([2]; D-leucine 10 mM, IAN 100 μg/mL, CuSO4 100 μg/mL) | log reduction in the number of CFU compared to untreated control ([2]; grapefruit leaves, 7 to 28 days after inoculation) [log] | dose dependence of Xac306 biofilm decrease (Xac306 biofilm formation) | MIC ([1]; Xanthomonas citri) [µM]
1 | O=S(=O)([O-])[O-].[Cu+2] [CuSO4] | 250 | 250 | 250 | 500 | 3×10^7 CFU/mL | less than that sprayed with the pathogen alone | ~1.0 |  | 
2 | N[C@H](CO)C(=O)O [D-serine] |  |  |  |  |  |  |  | decreased Xac306 biofilm in a dose-dependent manner | 8000 (≈ 841 µg/mL)

Source: patent US10111431B2, “Application of biofilm formation inhibiting compounds enhances control of citrus canker” (priority 2013, dated 2018)
